{"source": "patent US11261429B2", "about": "“Enriched and expanded human cord blood stem cells for treatment of hematological disorders” (ICAHN SCHOOL OF MEDICINE AT MOUNT SINAI, priority 2013, dated 2022)", "assay_type_in_all_cases": "cell-based, human", "key": {"CB CD34+ cells": {"test_system": "CB CD34+ cells", "experiment": "Ex vivo expansion of CB CD34+ cells with HDACIs, phenotypic analysis by flow cytometry", "conditions": "7 days of culture with cytokines plus HDACI", "excerpt": "CB collections were purchased from the Placental Blood Program at the New York Blood Center. CB-MNCs were isolated by Ficoll-Hypaque density centrifugation, and CD34+ cells were purified by immunotnagnetic selection as previously described (Chaurasia et al., “Chromatin-Modifying Agents Promote the Ex vivo Production of Functional Human Erythroid Progenitor Cells,” Blood 117:4632-4641 (2011), which is hereby incorporated by reference in its entirety). Highly purified (90%-98%) PCs (4.0-5.0×10^4) were cultured in SF Stemline II (Sigma-Aldrich) culture medium or IMDM (Lonza) containing 30% FBS (HyClone Laboratories) supplemented with 150 ng/ml SCF, 100 ng/ml fms-like tyrosine kinase receptor 3 (FLT3 ligand), 100 ng/ml thrombopoietin (TPO), and 50 ng/ml interleukin 3 (IL-3) (R&D Systems) and incubated in a humidified incubator maintained at 37° C. with 5% CO2. […] The cell populations studied and the various conditions under which they were cultured are referred to by specific terms listed in Table 1. Viable PC and cultured cells were enumerated using the trypan blue exclusion method. The fold expansion of CD34+ cells or subpopulations was calculated based on the number of CD34+ cells determined to be present in an individual CB collection and the number of CD34+ cells that would have been generated if all of the CD34+ cells within that primary CB collection were cultured using the various culture conditions described. PC or cultured cells expanded in the presence or absence of HDACIs were stained with an anti-human CD34 mAb or an isotype-matched control mAb and analyzed using a FACSCanto II (BD). CD34+ cells were re-isolated using a CD34+ cell isolation kit, as previously described, for further phenotypic and functional analyses. All mAbs were purchased from BD Biosciences and Cell Signaling Technology. Phenotypic analyses ([…], […], and […]7) of the ex vivo-expanded cells after 7 days in control cultures or cytokines plus an HDACI were performed as previously described (Chaurasia et al., “Chromatin-Modifying Agents Promote the Ex vivo Production of Functional Human Erythroid Progenitor Cells,” Blood 117:4632-4641 (2011), which is hereby incorporated by reference in its entirety)."}, "HDAC1": {"test_system": "HDAC1", "experiment": "HDAC protein levels in CB-MNCs, Western blot densitometry", "conditions": "24 hr, SCR 8 μM, C433 80 μM, VPA 1.25 mM"}, "HDAC2": {"test_system": "HDAC2", "experiment": "HDAC protein levels in CB-MNCs, Western blot densitometry", "conditions": "24 hr, SCR 8 μM, C433 80 μM, VPA 1.25 mM"}, "HDAC3": {"test_system": "HDAC3", "experiment": "HDAC protein levels in CB-MNCs, Western blot densitometry", "conditions": "24 hr, SCR 8 μM, C433 80 μM, VPA 1.25 mM", "description": "(§1) Cellular proteins were separated by SDS-PAGE using Novex (Invitrogen) and transferred by iBlot (Invitrogen). The membranes were probed with mAbs against individual histone deacetylases (HDAC1, HDAC2, HDAC3, HDAC4, HDAC5, HDAC6, and β-actin; Cell Signaling Technology) and developed using a chemiluminescence system with HRP-conjugated secondary antibodies (Amersham Biosciences) according to the manufacturer's instructions."}, "HDAC4": {"test_system": "HDAC4", "experiment": "HDAC protein levels in CB-MNCs, Western blot densitometry", "conditions": "24 hr, SCR 8 μM, C433 80 μM, VPA 1.25 mM", "description": "as §1"}, "HDAC5": {"test_system": "HDAC5", "experiment": "HDAC protein levels in CB-MNCs, Western blot densitometry", "conditions": "24 hr, SCR 8 μM, C433 80 μM, VPA 1.25 mM", "description": "as §1"}, "HDAC6": {"test_system": "HDAC6", "experiment": "HDAC protein levels in CB-MNCs, Western blot densitometry", "conditions": "24 hr, SCR 8 μM, C433 80 μM, VPA 1.25 mM", "description": "as §1"}, "class I and II HDAC": {"test_system": "class I and II HDAC", "experiment": "HDAC protein levels in CB-MNCs, Western blot, all HDACs examined", "conditions": "after 2 hours of treatment", "description": "as §1"}}}
{"smiles": "Nc1ccccc1NC(=O)CCCCCCC(=O)Nc1ccccc1", "note": "[C433, CAY10433]", "values": [{"measurement": "percentage of CD34+CD90+ cells", "setting": "CB CD34+ cells", "value": "70.1%±18.4%"}, {"measurement": "HDAC1 expression relative to b-ACTIN (%)", "setting": "HDAC1", "value": "24.3 ± 0.4", "unit": "%"}, {"measurement": "HDAC2 expression relative to b-ACTIN (%)", "setting": "HDAC2", "value": "40.0 ± 8.0", "unit": "%"}, {"measurement": "HDAC3 expression relative to b-ACTIN (%)", "setting": "HDAC3", "value": "28.0 ± 20.0", "unit": "%"}, {"measurement": "HDAC4 expression relative to b-ACTIN (%)", "setting": "HDAC4", "value": "23.5 ± 16.5", "unit": "%"}, {"measurement": "HDAC5 expression relative to b-ACTIN (%)", "setting": "HDAC5", "value": "12.6 ± 1.9", "unit": "%"}, {"measurement": "HDAC6 expression relative to b-ACTIN (%)", "setting": "HDAC6", "value": "35.8 ± 7.2", "unit": "%"}, {"measurement": "inhibition of HDAC expression", "setting": "class I and II HDAC", "value": "did not inhibit HDAC expression"}]}
{"smiles": "O=C(CCCCCN1C(=O)c2cccc3cccc(c23)C1=O)NO", "note": "[SCR, Scriptaid]", "values": [{"measurement": "percentage of CD34+CD90+ cells", "setting": "CB CD34+ cells", "value": "73.4%±13.9%"}, {"measurement": "inhibition of HDAC expression", "setting": "class I and II HDAC", "value": "did not inhibit HDAC expression"}]}
